Results as given in patent US12319721B2 (Purdue Research Foundation, priority 2018, dated 2025).
Bridges are numbered along the chain shown (N, C = ends). Roman numbers before positions name the chains, in order. Where no end group is shown, it is not given here. [ ]: non-standard residue; d: D form. The star is where a group is joined. mini PEG = minipeg spacer; Nle = CCCC[C@H](N)C(=O)O; Octanoyl = CCCCCCCC(=O)*; Dap = NC[C@H](N)C(=O)O

Columns and labels:
[1] = system: fracture callus of fractured femur; assay: Femur fracture model, microCT of the fracture callus (BV/TV, BV, TbTh, TbSp); assay type: in vivo, Swiss Webster mice
Source text: All in vivo data included herein are from Swiss Webster mice. […] 1×concentration represents 1 nmol/day, 10× represents 10 nmol/day, 100×represents 100 nmol/day and most studies have an n of 5.
The term “BV/TV” means the bone volume divided by total volume of the 100 thickest micro CT slices of the fracture callus.
The term “TbTh” means the trabecular thickness of the 100 thickest micro CT slices of the fracture callus.
The term “[…]” means the overall bone volume of the 100 thickest micro CT slices of the fracture callus.
The term “TbSp” means the spacing between the trabecula in the 100 thickest micro CT slices of the fracture callus.
The targeted conjugates were synthesized using standard Fmoc solid-phase peptide synthesis, as described above. To ensure the conjugates' activity, mouse pre osteo-blast (MCTC3-1) cells were treated with the targeted and untargeted compounds for three days at concentrations from 1 pM to 100 nM. After three days of treatment, the cells were harvested, and the ribonucleic acid (RNA) was purified from the cells. Expression levels of ALP, RUNx2, OSX, osteo-pontin (OPN), collagen 1A (Col-1A), OPG, RANKL, scle-rostin gene (SOST), and OC were quantified via quantitative reverse transcription polymerase chain reaction (RT-qPCR). Once the biological activity of the conjugates was confirmed, they were tested in vivo in a fracture model. Aseptic surgical techniques were used to place a 23-gage needle as in intramedullary nail in the femur of anesthetized, 12-week-old Swiss Webster mice for internal fixation before fracture. Femur fractures were induced using a drop weight fracture device from RISystem. The mice received buprenorphine for three days post fracture. […] Fracture healing was assessed using microCT (Scanco Medical Ag). Morphometric parameters were quantified in the 100 widest slices of the fracture callus. Trabecular thickness (TbTh), trabecular spacing (TbSp), total volume (TV), and volume of calcified callus (BV) were calculated. Fractured femurs were tested for strength in a four-point bend to failure using an Electro Force TestBench (TA Instruments). Lower supports were 10 mm apart on the anterior face of the femur in contact with the proximal and distal diaphysis. Upper supports were 4 mm apart and spanned the entire fracture callus on the diaphysis. Force was applied from the posterior face of the femur with a displacement rate of 0.3 mm/sec. Peak load, yield load, stiffness, displacement post yield, work to fracture, and deformation data were generated. Statistical analysis was performed using a two-way analysis of variance (ANOVA) and a Tukey post-hoc analysis with significance reported at the 95% confidence level. All animal experiments were performed in accordance with protocols approved by Purdue University's Institutional Animal Care and Use Committee (IACUC).

healed fractured femur = assay: Femur fracture model, postmortem four-point bend of the healed femur; assay type: in vivo, Swiss Webster mice
Source text: All in vivo data included herein are from Swiss Webster mice. All mice received an osteotomy on their right femur and received subcutaneous drug administration daily for either 2, 3 or 4 weeks, as indicated, for each compound. 1×concentration represents 1 nmol/day, 10× represents 10 nmol/day, 100×represents 100 nmol/day and most studies have an n of 5.
The term “Peak Load” means a postmortem 4 point bend of the healed femur. Peak load represents the maximum force the healed femur withstood before it refractured.
The targeted conjugates were synthesized using standard Fmoc solid-phase peptide synthesis, as described above. To ensure the conjugates' activity, mouse pre osteo-blast (MCTC3-1) cells were treated with the targeted and untargeted compounds for three days at concentrations from 1 pM to 100 nM. After three days of treatment, the cells were harvested, and the ribonucleic acid (RNA) was purified from the cells. Expression levels of ALP, RUNx2, OSX, osteo-pontin (OPN), collagen 1A (Col-1A), OPG, RANKL, scle-rostin gene (SOST), and OC were quantified via quantitative reverse transcription polymerase chain reaction (RT-qPCR). Once the biological activity of the conjugates was confirmed, they were tested in vivo in a fracture model. Aseptic surgical techniques were used to place a 23-gage needle as in intramedullary nail in the femur of anesthetized, 12-week-old Swiss Webster mice for internal fixation before fracture. Femur fractures were induced using a drop weight fracture device from RISystem. The mice received buprenorphine for three days post fracture. The mice were dosed subcutaneously each day for two weeks, three weeks, 4 weeks, or 17 days. Fracture healing was assessed using microCT (Scanco Medical Ag). Morphometric parameters were quantified in the 100 widest slices of the fracture callus. Trabecular thickness (TbTh), trabecular spacing (TbSp), total volume (TV), and volume of calcified callus (BV) were calculated. Fractured femurs were tested for strength in a four-point bend to failure using an Electro Force TestBench (TA Instruments). Lower supports were 10 mm apart on the anterior face of the femur in contact with the proximal and distal diaphysis. Upper supports were 4 mm apart and spanned the entire fracture callus on the diaphysis. Force was applied from the posterior face of the femur with a displacement rate of 0.3 mm/sec. Peak load, yield load, stiffness, displacement post yield, work to fracture, and deformation data were generated. Statistical analysis was performed using a two-way analysis of variance (ANOVA) and a Tukey post-hoc analysis with significance reported at the 95% confidence level. All animal experiments were performed in accordance with protocols approved by Purdue University's Institutional Animal Care and Use Committee (IACUC).

[2] = 3 weeks, 0.1, 1 and 10 nmol daily subcutaneous
[3] = 3 weeks, 0.1, 1 and 10 nmol daily subcutaneous, n=5
[4] = 2 weeks, various concentrations 1-100 nmol/day, subcutaneous daily
[5] = 3 weeks, 1, 10 and 100 nmol daily subcutaneous, n=5
[6] = 4 weeks, various concentrations (1, 10 and in part 100 nmol/day), subcutaneous daily
[7] = 1 μmol/kg, subcutaneous, every-other-day, CFW Swiss Webster mice

B2A_mp4_(D)E10: two B2A branches (SEQ ID NO: 44) conjugated to e10 (D-glutamic acids), SEQ ID NO: 19, FIG. 35 (AIS[Nle]LYLDENEKVVLK; not fully specified; also: C-terminal Lys carries branching Lys-Ahx3-D-Glu10 moiety)
BV/TV (bone density) [1, 2]: raises bone density | BV (bone volume, bone mineralization) [1, 3]: raises bone mineralization | Max load (bone strength) (healed fractured femur; [3]): raises bone strength | Work to fracture (bone strength) (healed fractured femur; [3]): raises bone strength

BFP-D10: bone forming peptide conjugated with 10 aspartate acids, SEQ ID NO: 1, DDDDDDDDDDGQGFSYPYKA VFSTQ (DDDDDDDDDDGQGFSYPYKAVFSTQ; 10 aspartates)
BV/TV [1, 4]: dose dependent manner | TbSp [1, 4]: dose dependent manner | Peak load of fractured femurs (ranking, compared to PBS) (healed fractured femur; after 2 weeks, 100 nmol/day (100×)): obtained the maximum peak load

CBM D10: collagen binding motif of osteopontin conjugated with 10 aspartate acids, SEQ ID NO: 9, FIG. 33
BV/TV (bone density) [1, 2]: dose dependent manner

F2A_mp4_(D)E10: two copies of FGF2 receptor targeting sequence YRSRKYSSWYVALKR branching from a lysine, 4 mini pegs, 10 D glutamic acids
BV/TV (bone density) [1, 2]: raises bone density | BV (bone volume, bone mineralization) [1, 3]: raises bone mineralization | Max load (bone strength) (healed fractured femur; [3]): raises bone strength | Work to fracture (bone strength) (healed fractured femur; [3]): raises bone strength

F119_mp4 (D)E10: heparin binding fragment 119-135 of FGF2 with mp4 linker and 10 glutamic acids, SEQ ID NO: 20, FIG. 84 (KRTGQYKLGSKTGPGQK; mp4 linker, 10 D-glutamic acids; SITE 17 C-term Lysine modified with 4 mini PEG linker-d(Glutamic acid)10 moiety)
BV (bone volume, bone mineralization) [1, 5]: raises bone mineralization | BV/TV (bone density) [1, 5]: raises bone density | Max load (bone strength) (healed fractured femur; [5]): raises bone strength | Work to fracture (bone strength) (healed fractured femur; [5]): raises bone strength

Ghrelin-D 10: Ghrelin D10 with Ser-3 replaced with diaminopropionic acid modified with an octanoyl group sidechain, SEQ ID NO: 5 (GS[Dap](Octanoyl)FLSPEHQKAQQRKESKKPPAKLQPRDDDDDDDDDD)
BV/TV [1, 6]: dose dependent manner

JNK3_Mp4_(D)E10: 25-residue arrestin-3 peptide (JNK3) with mp4 linker and 10 glutamic acids, SEQ ID NO: 21, FIG. 49 (MGEKPGTRVFKKSSPNCKLTVYLGK; mp4 linker, 10 D-glutamic acids; SITE 25 C-term Lysine modified with 4 mini PEG linker-d(Glutamic acid)10 moiety)
BV/TV (bone density) [1, 2]: raises bone density | BV (bone volume, bone mineralization) [1, 3]: raises bone mineralization | Max load (bone strength) (healed fractured femur; [3]): raises bone strength | Work to fracture (bone strength) (healed fractured femur; [3]): raises bone strength

MGF D10: Mechano-growth factor conjugated with 10 aspartate acids, SEQ ID NO: 11, DDDDDDDDDDYQPPSTNKNTKSQRRKGSTFEEHK (10 aspartates)
BV/TV [1, 6]: dose dependent manner

ODP D10: Osteopontin-derived peptide conjugated with 10 aspartate acids via 4 mini PEG, SEQ ID NO: 13 (DDDDDDDDDD[mini PEG][mini PEG][mini PEG][mini PEG]DVDVPDGRGDSLAYG)
BV/TV ([1]; 4 weeks, 1 nmol/day (1×)): healing was reflected as BV/TV

OGP-D10: osteogenic growth peptide conjugated with 10 aspartate acids, SEQ ID NO: 2, DDDDDDDDDDALKRQGRTL YGFGG (DDDDDDDDDDALKRQGRTLYGFGG; 10 aspartates)
BV/TV [1, 4]: dose dependent manner | TbSp [1, 4]: dose dependent manner | TbTh [1, 4]: dose dependent manner

Osteostatin_mp4_(D)E10: Osteostatin (PTHrP[107-139]) with 10 glutamic acids, SEQ ID NO: 23, FIG. 59
BV/TV (bone density) [1, 2]: raises bone density | Tbth (trabecular thickness, bone quality) [1, 3]: raises bone quality | Max load (bone strength) (healed fractured femur; [3]): raises bone strength | Stiffness (healed fractured femur; [3]): raises bone stiffness | Work to fracture (bone strength) (healed fractured femur; [3]): raises bone strength

P4 D10: P4 (BMP-2 knuckle epitope fragment) conjugated with 10 aspartate acids, SEQ ID NO: 10 (HKIPKASSVPTELSAISTLYLDDDDDDDDDD; 10 aspartates)
BV/TV [1, 6]: dose dependent manner

Preptin D10: Preptin conjugated with 10 aspartate acids, SEQ ID NO: 3, FIG. 29 (DVSTSQAVLPDDFPRYDDDDDDDDDD; 10 aspartates)
BV/TV [1, 4]: dose dependent manner | TbTh [1, 4]: dose dependent manner | bone volume (BV) [1, 4]: dose dependent manner

pBMP9 D 10: peptide from BMP-9 knuckle epitope conjugated with D10, SEQ ID NO: 6/14, FIG. 27 (chain 1 CGGKVGKACCVPTKLSPISVLYK; chain 2 CGGKVGKACCVPTKLSPISVLVK; not fully specified (C-terminus); cysteine pairing not given here; also: the two chains differ at position 22 (Y vs V))
bone volume (BV) ([1]; 4 weeks, 1, 10 and 100 nmol/day, subcutaneous daily): dose dependent manner | BV/TV [1, 6]: dose dependent manner

targeted E738 conjugate: Src inhibitor E738 conjugated with D10 (10 aspartic acids, SEQ ID NO: 30), FIG. 4 (DDDDDDDDDD; not fully specified (C-terminus); also: conjugated to Src inhibitor E738)
Trabecular Thickness at the fracture callus [1, 7]: significantly improved | bone density (BV/TV) at the fracture callus [1, 7]: significantly improved

B1: VIP D10: Vasoactive intestinal peptide conjugated with D10, SEQ ID NO: 8/17, FIG. 31 (peptide)
chain 1: HSDAVFTDNYTRLRKQMAVKKYLNSILNDDDDDDDDDD
chain 2: B1 chain 1
modifications: 10 aspartates
BV/TV ([1]; 4 weeks, 1 nmol/day (1×)): healing was reflected as BV/TV | TbTh ([1]; 4 weeks, 1 nmol/day (1×)): healing was reflected

B2: CNP D10: C-type Natriuretic peptide conjugated with 10 aspartate acids, SEQ ID NO: 7/16, FIG. 30 (peptide)
chain 1: DDDDDDDDDDGLSKGCFGLKLDRIGSMSGLGC
chain 2: B2 chain 1
modifications: disulfide I:16-I:32, II:16-II:32; not fully specified
BV/TV [1, 6]: dose dependent manner
